Tested on: MphR(A) or MphR(A)-NLS / plant promoters PETRpON4, PETRpON8
Test: EpON erythromycin-inducible GUS expression in Nicotiana tabacum SR1 suspension cells
Format: cell-based
Details: 250 μg/ml erythromycin
Experimental: The transformation protocol of SR1 cells was adapted from Wu and Feng (1999, Plant Cell Reports 18: 381-386). In brief, 200 mg of exponentially growing SR1 cells were harvested by centrifugation. The cells were incubated for 15 min. in 2% DMSO and washed twice in fresh medium. Cells were subsequently resuspended in electroporation buffer (5 mM CaCl2; 10 mM NaCl2; 0.4 M sucrose; 8.7% glycerol; 4 mM ascorbate; 10 mM HEPES; pH 6.8) and mixed with desired DNA at a concentration of 0.2 μg/μl. The cell-DNA mixture was incubated for 10 min. on ice electroporated at 700 V/cm and 980 μF using a BioRad Gene Pulser and appropriate cuvettes. Following electroporation, cells were kept on ice for 10 min. and deplasmolyzed by 4 subsequent additions of 100 μl LS medium at 5 min. intervals. Transformation rates 20%±5% are typically reached with SR1 cells using this modified protocol.
Transformed SR1 cells were incubated at 25° C. for 48 h while rocking at 110 rpm. […] Cells were lysed in extraction buffer (50 mM NaH2PO4; 10 mM EDTA; 0.1% Triton X-100; 0.1% sodium lauryl sarcosine; 10 mM β-mercaptoethanol; pH 7.0) by freezing them in liquid nitrogen and grinding them using a micropestle. Soluble protein extract was collected by centrifugation for 20 min. at 15,000 rpm and 4° C. Protein concentration of plant extracts was determined using a Bradford assay (Bradford, 1976, Anal. Biochem. 72: 248-254). The GUS expression assay was performed following a modified protocol by Jefferson et al. (1987; EMBO J. 6: 3901-3907). In brief, 100 μl of cell extract were incubated in extraction buffer (see above) also containing 1 mM of the β-glucuronidase substrate 4-methylumbelliferyl glucuronide (MUG; Duchefa, NL). The reaction mixture was incubated at 37° C. and 100 μl aliquots were removed at appropriate time intervals and the reaction stopped by addition of 1.9 ml of 0.2 M K2CO3. The fluorescence time course was determined using typical 365 nm/455 nm excitation/emission profiles and a Shimadzu RF-5001 PC spectrofluorophotometer.
For regulated expression in transgenic plants and plant tissue culture an inducible rather than a repressible gene regulation system would be desirable. This enables induction of transgene […] by addition of the antibiotic rather than by its withdrawal. We therefore constructed an erythromycin-inducible plant gene regulation system (EpON) which consisted of the E. coli MphR(A) repressor protein (SEQ ID NO: 4) which binds, in the absence of macrolide antibiotics, to the ETR binding module cloned downstream of a strong constitutive plant promoter (PCaMV35S). Binding of MphR(A) to the ETR module blocks PCaMV35S-mediated target gene expression. […]

CC[C@H]1OC(=O)[C@H](C)[C@@H](O[C@H]2C[C@@](C)(OC)[C@@H](O)[C@H](C)O2)[C@H](C)[C@@H](O[C@@H]2O[C@H](C)C[C@H](N(C)C)[C@H]2O)[C@](C)(O)C[C@@H](C)C(=O)[C@H](C)[C@@H](O)[C@]1(C)O [Erythromycin]
GUS activity upon addition of erythromycin (pBP8/pBP15 (MphR(A)-NLS / PETRpON4)): 313.5±39.6 pmoles 4-MU min^−1 mg^−1 protein^−1 | GUS activity upon addition of erythromycin (pBP8/pBP35 (MphR(A)-NLS / PETRpON8)): 283.6±24.7 pmoles 4-MU min^−1 mg^−1 protein^−1 | GUS activity upon addition of erythromycin (pBP9/pBP15 (MphR(A) / PETRpON4)): 305.2±24.9 pmoles 4-MU min^−1 mg^−1 protein^−1 | GUS activity upon addition of erythromycin (pBP9/pBP35 (MphR(A) / PETRpON8)): 276.7±34.1 pmoles 4-MU min^−1 mg^−1 protein^−1

Source: patent US7273723B2, “Antibiotic-based gene regulation system” (priority 2001, dated 2007)
